From publication PMC10460880, “Cathepsin K‐Activated Probe for Fluoro‐Photoacoustic Imaging of Early Osteolytic Metastasis” (Advanced Science, 2023) come the findings set out here.

The target of test [1] is T1, cathepsin K (CTSK) (Homo sapiens, UniProt P43235).
T1 sequence (P43235 115-329): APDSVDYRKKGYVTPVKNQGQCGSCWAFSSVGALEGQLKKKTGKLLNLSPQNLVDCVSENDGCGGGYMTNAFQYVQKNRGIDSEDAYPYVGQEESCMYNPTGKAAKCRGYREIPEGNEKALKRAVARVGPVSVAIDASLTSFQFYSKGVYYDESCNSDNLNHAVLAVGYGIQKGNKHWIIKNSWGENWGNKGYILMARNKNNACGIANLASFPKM
Put plainly: In vitro CTSK activation of probes (UV-vis, fluorescence, PA). The class given is biochemical. The procedure:
radiography (DR), and fluorescence imaging were carried out by using an IVIS Spectrum imaging system (PerkinElmer). Photoacoustic (PA) imaging was obtained on a multispectral optoacoustic tomography (MSOT) scanner (iThera Medical). Computed tomography (CT) imaging was recorded on single-photon emission computed tomography imaging system (Olympus). Magnetic resonance (MR) imaging was recorded on a preclinical magnetic resonance solution system (MR solutions).
In vitro analysis of cathepsin K (CTSK) activation, selectivity, and sensitivity studies.
Probe CTSK-APPA, D-CTSK-APPA, or CTSK-APP (10 μM) was incubated with CTSK in MES buffer (50 mM, pH 6.0) containing 0.1% DMSO, 2 mM ethylene diamine tetraacetic acid (EDTA), 4 mM dithiothreitol (DTT) and 0.15% chondroitin sulfate (CS) at 37 °C for 1 h. After incubation at the indicated time, UV-Vis spectra, fluorescence spectra, fluorescence images, and PA images of the solutions were recorded. Probe CyP (10 μM) incubated with CTSK (200 ng/mL) for 1 h was further analyzed by HPLC. For selectivity study, CTSK-APPA (10 μM) in a 96-well plate was incubated with CTSK (100 ng/mL), CTSB (100 ng/mL), FAP-α (9×10-4 U/mL), Caspase-3 (100 ng/mL), APN (100 ng/mL), GGT (0.1 U/mL), ALP (0.1 U/mL), ACE (1×10-3 U/mL), and trypsin (10 U/L) at […] for 1 h. […] The limit of detection was determined from emission intensities according to the equation: 3δ/k, where δ represents the standard deviation of blank, and k represents the slope of the fitting plot of emission intensities. Fluorescence images were captured by using the IVIS Spectrum imaging system with excitation at 660 ± 10 nm and emission at 710 ± 10 nm. […]
Kinetic assay. […] Fluorescence intensities of solution were measured for quantification analyses by a microplate reader (BioTek, Synergy 2) with excitation at 690 nm and emission at 720 nm. The kinetic parameters were calculated according to the Michaelis-Menten equation shown below: V = Vmax×[S]/(Km + [S]), where V is initial velocity, and [S] is substrate concentration. […]

In test [2] the target is T1, cathepsin K (CTSK). Description: CTSK activation of probe adsorbed on HA. The class given is biochemical. The note with it: probe 10 μM on HA 10 mg/mL (30 min), then CTSK 200 ng/mL, n = 3. The method, then: In Vitro bone-binding and CTSK activation assay. Hydroxyapatite (HA) was used as a substitute for bone in vitro to evaluate the bone-binding ability of CTSK-APPA and CTSK-APP. CTSK-APPA or CTSK-APP (10 μM) was mildly stirred with HA (10 mg/mL) at 37 °C for different times (0, 10, 30, 60, and 120 min). The mixture was centrifugated at 4000 g for 5 min and then washed with a 10-fold excess of PBS (1×) three times. The efficiency of HA binding was determined from the fluorescence intensities of the precipitation according to the equation: (F – Fblank)/(F0 – Fblank)*100%, where F represents the fluorescence intensity of the precipitation incubated with HA for a determined time, and Fblank represents the blank fluorescence intensity. After verifying the appropriate bone-binding time, CTSK-APPA or CTSK-APP (10 μM) was mixed with HA (10 mg/mL) at 37 °C for 30 min, and then CTSK (200 ng/mL) was added to the corresponding mixture and incubated at 37 °C for another 1 h under mild stirring. The mixture was centrifugated at 4000 g for 5 min and then washed with a 10-fold excess of MES buffer (50 mM, pH 6.0) three times. Fluorescence images were captured by using the IVIS Spectrum imaging system with excitation at 660 ± 10 nm and emission at 710 ± 10 nm. PA images were captured by using a MSOT scanner with excitation at 700 nm. […]

For Cbz‐Leu‐Arg‐OH [CTSK-APPA], the “incubation time until absorption at 690 nm and fluorescence at 720 nm reach plateau” value at cathepsin K (CTSK) [1] (incubation with CTSK) is reported as “≈ 60 min”. Also, the “fluorescence on/off ratio at 720 nm” value on cathepsin K (CTSK) [1] (probe 10 μM + CTSK, MES buffer 50 mM pH 6.0, 0.1% DMSO, 37 °C, 1 h, Ex 690 nm, n = 3) is recorded as approximately 20.9. On cathepsin K (CTSK) [1] (probe 10 μM + CTSK, MES buffer pH 6.0, 37 °C, 1 h, irradiated at 700 nm, n = 3), the “enhancement of photoacoustic signal” value is 5.2 fold. The “fluorescence on/off ratio of HA-adsorbed probe” value at cathepsin K (CTSK) [2] (Ex 660 nm, 720 nm) amounted to 5.1. Moreover, the “enhancement factor for PA signal of HA-adsorbed probe” value on cathepsin K (CTSK) [2] (Ex 700 nm) is listed as “approximately 2.8”.
